Holding throughout (type): ADME, organism-based
What all share (set-up): dose 15 mg/kg, route intraperitoneal

In series [1] the test system is Rattus norvegicus. In words: Effect on CYP17a1 mRNA expression in Sprague-Dawley rat liver at 15 mg/kg, ip administered twice daily every 12 hrs for 8 days by qRT-PCR analysis relative to control. To be noted: in vivo. A general note: In qPCR the cycle at which signal appears reflects the starting amount.
For series [2], the system named is Rattus norvegicus. The experiment in a line: Effect on CYP2b2 mRNA expression in Sprague-Dawley rat liver at 15 mg/kg, ip administered twice daily every 12 hrs for 8 days by qRT-PCR analysis relative to control. To be noted: in vivo.
In series [3] the test system is Rattus norvegicus. The experiment in a line: Effect on Ces2 mRNA expression in Sprague-Dawley rat liver at 15 mg/kg, ip administered twice daily every 12 hrs for 8 days by qRT-PCR analysis relative to control. The note with it: in vivo.
Series [4] has as its system Rattus norvegicus. In words: Effect on PXR mRNA expression in Sprague-Dawley rat liver at 15 mg/kg, ip administered twice daily every 12 hrs for 8 days by qRT-PCR analysis relative to control. To be noted: in vivo.
For series [5], the system named is Rattus norvegicus. The experiment in a line: Effect on AhR mRNA expression in Sprague-Dawley rat liver at 15 mg/kg, ip administered twice daily every 12 hrs for 8 days by qRT-PCR analysis relative to control. To be noted: in vivo.
Series [6] relates to Rattus norvegicus. In words: Effect on Slc22a8 mRNA expression in Sprague-Dawley rat liver at 15 mg/kg, ip administered twice daily every 12 hrs for 8 days by qRT-PCR analysis relative to control. The note with it: in vivo.
Series [7] concerns Rattus norvegicus. The experiment in a line: Effect on CYP2d2 mRNA expression in Sprague-Dawley rat liver at 15 mg/kg, ip administered twice daily every 12 hrs for 8 days by qRT-PCR analysis relative to control. The note with it: in vivo.
In series [8] the test system is Rattus norvegicus. The experiment in a line: Effect on Slco1a4 mRNA expression in Sprague-Dawley rat liver at 15 mg/kg, ip administered twice daily every 12 hrs for 8 days by qRT-PCR analysis relative to control. The note with it: in vivo.
In series [9] the test system is Rattus norvegicus. In words: Effect on GAPDH mRNA expression in Sprague-Dawley rat liver at 15 mg/kg, ip administered twice daily every 12 hrs for 8 days by qRT-PCR analysis relative to control. The note with it: in vivo.
In a further series the test system is Yc2/Gsta5. In words: Effect on Yc2/Gsta5 mRNA expression in Sprague-Dawley rat liver at 15 mg/kg, ip administered twice daily every 12 hrs for 8 days by microarray analysis relative to control. To be noted: read-out: FC.
The next series deals with Ces2. In words: Effect on Ces2 mRNA expression in Sprague-Dawley rat liver at 15 mg/kg, ip administered twice daily every 12 hrs for 8 days by microarray analysis relative to control. The note with it: read-out: FC.
Another series concerns CYP2j4. The experiment in a line: Effect on CYP2j4 mRNA expression in Sprague-Dawley rat liver at 15 mg/kg, ip administered twice daily every 12 hrs for 8 days by microarray analysis relative to control. To be noted: read-out: FC.
The test system of another series is CYP3a1. In words: Effect on CYP3a1 mRNA expression in Sprague-Dawley rat liver at 15 mg/kg, ip administered twice daily every 12 hrs for 8 days by microarray analysis relative to control. The note with it: read-out: FC.
The subject of a further series is NR1I3. In words: Effect on NR1I3 mRNA expression in Sprague-Dawley rat liver at 15 mg/kg, ip administered twice daily every 12 hrs for 8 days by microarray analysis relative to control. To be noted: read-out: FC.
The next series relates to NR1I2. In words: Effect on NR1I2 mRNA expression in Sprague-Dawley rat liver at 15 mg/kg, ip administered twice daily every 12 hrs for 8 days by microarray analysis relative to control. The note with it: read-out: FC.
In another series the test system is AhR. In words: Effect on AhR mRNA expression in Sprague-Dawley rat liver at 15 mg/kg, ip administered twice daily every 12 hrs for 8 days by microarray analysis relative to control. To be noted: read-out: FC.
In a further series the test system is Abcg5. The experiment in a line: Effect on Abcg5 mRNA expression in Sprague-Dawley rat liver at 15 mg/kg, ip administered twice daily every 12 hrs for 8 days by microarray analysis relative to control. The note with it: read-out: FC.
Another series concerns Abcb1a. In words: Effect on Abcb1a mRNA expression in Sprague-Dawley rat liver at 15 mg/kg, ip administered twice daily every 12 hrs for 8 days by microarray analysis relative to control. To be noted: read-out: FC.
In the next series the test system is Slc1a2. In words: Effect on Slc1a2 mRNA expression in Sprague-Dawley rat liver at 15 mg/kg, ip administered twice daily every 12 hrs for 8 days by microarray analysis relative to control. To be noted: read-out: FC.
A further series relates to Slc25a15. In words: Effect on Slc25a15 mRNA expression in Sprague-Dawley rat liver at 15 mg/kg, ip administered twice daily every 12 hrs for 8 days by microarray analysis relative to control. To be noted: read-out: FC.
The subject of another series is Slc37a4. In words: Effect on Slc37a4 mRNA expression in Sprague-Dawley rat liver at 15 mg/kg, ip administered twice daily every 12 hrs for 8 days by microarray analysis relative to control. To be noted: read-out: FC.

The results in this text go back to ChEMBL document CHEMBL3526135, “Induction of xenobiotic receptors, transporters, and drug metabolizing enzymes by oxycodone” (Drug Metab Dispos, 2013).

`COc1ccc2c3c1O[C@H]1C(=O)CC[C@@]4(O)[C@@H](C2)N(C)CC[C@]314.Cl` [OXYCODONE HYDROCHLORIDE]: the result in the series on Rattus norvegicus [1], in the series with Rattus norvegicus [2], in the series on Rattus norvegicus [3], in the series with Rattus norvegicus [4], in the series with Rattus norvegicus [5] and with Rattus norvegicus [6] was Active. Moreover, the result in the series on Rattus norvegicus [7], in the series with Rattus norvegicus [8] and in the series on Rattus norvegicus [9] was Active. Moreover, the fold induction at 8 days with Yc2/Gsta5 came to 7; with Ces2, 2.8; in the series with CYP2j4, 2.4; with CYP3a1 it was 1.7; with NR1I3, 6.1; in the series with NR1I2 it was 2.9. Also, the fold induction at 8 days with AhR was 2.3; in the series with Abcg5 it was 3.6; in the series on Abcb1a, 2.8; in the series on Slc1a2, 2.4; with Slc25a15 it was 2.1; in the series on Slc37a4, 2.
